# Earlier results, collected in PubChem BioAssay AID1259409 (Chemical Carcinogenesis Research Information System (CCRIS), 2018).
# Tested on: rodent chemically induced tumor inhibition, incidence and multiplicity
# Assay: CCRIS tumor inhibitor studies
compound,measurement,setting,value
CC1=C(/C=C/C(C)=C/C=C/C(C)=C/C(=O)Nc2ccc(O)cc2)C(C)(C)CCC1,"tumour outcome (control, treated, inhibition, significance)","Carcinogen: 7,12-DIMETHYLBENZ[A]ANTHRACENE, 57-97-6, Dose [Inhibitor]: 1.5 MMOL/KG CHOW DIET IN 25 ML OF THE VEHICLE (ETHANOL/TRICAPRYLIN 1:4 (VOL/VOL) PLUS 6% (WT/VOL) ALPHA-TOCOPHEROL) BEGI, Route [Inhibitor]: ORAL, Species: RAT, Strain/Sex: SPRAGUE-DAWLEY/FEMALE, Target Tissue: Type of Lesion: MAMMARY GLAND: TUMOR, Dose [Carcinogen]: 75 MG/KG BW IN 1.0 ML SESAME OIL ONCE, Promoter: NONE USED","70%, 30%, 57%, not significant"
same,"tumour outcome (control, treated, inhibition, significance)","Carcinogen: 7,12-DIMETHYLBENZ[A]ANTHRACENE, 57-97-6, Dose [Inhibitor]: 2 MMOL/KG DIET DAILY FROM 10 D THROUGH 12 WK AFTER CARCINOGEN DOSE FOLLOWED BY 16 WK OBSERVATION PERIOD (STUDY DURATION:, Route [Inhibitor]: ORAL, Species: RAT, Strain/Sex: SPRAGUE-DAWLEY/FEMALE, Target Tissue: Type of Lesion: MAMMARY GLAND: TUMOR, Dose [Carcinogen]: 10 MG/RAT ONCE, Promoter: NONE USED","8/15 (53%), 7/15 (47%), 11%, not significant"
same,"tumour outcome (control, treated, inhibition, significance)","Carcinogen: 7,12-DIMETHYLBENZ[A]ANTHRACENE, 57-97-6, Dose [Inhibitor]: 2 MMOL/KG DIET DAILY FROM 29 D PRIOR THROUGH 12 WK AFTER CARCINOGEN DOSE FOLLOWED BY 16 WK OBSERVATION PERIOD (STUDY DUR, Route [Inhibitor]: ORAL, Species: RAT, Strain/Sex: SPRAGUE-DAWLEY/FEMALE, Target Tissue: Type of Lesion: MAMMARY GLAND: TUMOR, Dose [Carcinogen]: 10 MG/RAT ONCE, Promoter: NONE USED","8/15 (53%), 9/15 (60%), -13%, not significant"
same,"tumour outcome (control, treated, inhibition, significance)","Carcinogen: DIETHYLNITROSAMINE [55-18-5], Dose [Inhibitor]: 280 NM/100 G BW WK FOR 3 WK BETWEEN 4TH AND 25TH WK AFTER CARCINOGEN (STUDY DURATION: 50 WK), Route [Inhibitor]: IP INJECTION, Species: RAT, Strain/Sex: F344/MALE, Target Tissue: Type of Lesion: LIVER: HEPATOCELLULAR CARCINOMA, Dose [Carcinogen]: 150 MG/KG ONCE, Promoter: 2-ACETYLAMINOFLUORENE [53-96-3]","14/18 (78%), 6/20 (30%), 62%, p= 0.0044"
same,"tumour outcome (control, treated, inhibition, significance)","Carcinogen: DIETHYLNITROSAMINE, 55-18-5, Dose [Inhibitor]: 0, 98 MG/KG DIET FOR DURATION OF STUDY BEGINNING 1 WK PRIOR TO CARCINOGEN TREATMENT (STUDY DURATION: 25 WK), Route [Inhibitor]: ORAL, Species: HAMSTER, Strain/Sex: SYRIAN/MALE, Target Tissue: Type of Lesion: LUNG: CARCINOMA, Dose [Carcinogen]: 17.8 MG/KG BW 2/WK FOR 20 WK, Promoter: NONE USED","50%, 45%, 10%, not significant"
same,"tumour outcome (control, treated, inhibition, significance)","Carcinogen: DIETHYLNITROSAMINE, 55-18-5, Dose [Inhibitor]: 0, 98 MG/KG DIET FOR DURATION OF STUDY BEGINNING 1 WK PRIOR TO CARCINOGEN TREATMENT (STUDY DURATION: 25 WK), Route [Inhibitor]: ORAL, Species: HAMSTER, Strain/Sex: SYRIAN/MALE, Target Tissue: Type of Lesion: TRACHEA: PAPILLOMA, Dose [Carcinogen]: 17.8 MG/KG BW 2/WK FOR 20 WK, Promoter: NONE USED","95%, 95%, 0%, not significant"
same,"tumour outcome (control, treated, inhibition, significance)","Carcinogen: DIETHYLNITROSAMINE, 55-18-5, Dose [Inhibitor]: 0, 196 MG/KG DIET FOR DURATION OF STUDY BEGINNING 1 WK PRIOR TO CARCINOGEN TREATMENT (STUDY DURATION: 25 WK), Route [Inhibitor]: ORAL, Species: HAMSTER, Strain/Sex: SYRIAN/MALE, Target Tissue: Type of Lesion: LUNG: CARCINOMA, Dose [Carcinogen]: 17.8 MG/KG BW 2/WK FOR 20 WK, Promoter: NONE USED","60%, 50%, 17%, not significant"
same,"tumour outcome (control, treated, inhibition, significance)","Carcinogen: DIETHYLNITROSAMINE, 55-18-5, Dose [Inhibitor]: 0, 196 MG/KG DIET FOR DURATION OF STUDY BEGINNING 1 WK PRIOR TO CARCINOGEN TREATMENT (STUDY DURATION: 25 WK), Route [Inhibitor]: ORAL, Species: HAMSTER, Strain/Sex: SYRIAN/MALE, Target Tissue: Type of Lesion: TRACHEA: PAPILLOMA, Dose [Carcinogen]: 17.8 MG/KG BW 2/WK FOR 20 WK, Promoter: NONE USED","100%, 100%, 0%, not significant"
same,"tumour outcome (control, treated, inhibition, significance)","Carcinogen: DIMETHYLBENZ[A]ANTHRACENE, 57-97-6, Dose [Inhibitor]: 0, 782 MG/KG DIET IN VEHICLE 2 MO PRIOR TO CARCINOGEN DOSE AND CONTINUED UNTIL CARCINOGEN ADMINISTRATION (STUDY DURATION, Route [Inhibitor]: ORAL, Species: RAT, Strain/Sex: CD-1/FEMALE, Target Tissue: Type of Lesion: MAMMARY GLAND: ADENOCARCINOMA, Dose [Carcinogen]: 20 MG IN 1 ML SESAME OIL ONCE, Promoter: NONE USED","63%, 71%, -13%, not calculated"
same,"tumour outcome (control, treated, inhibition, significance)","Carcinogen: DIMETHYLBENZ[A]ANTHRACENE, 57-97-6, Dose [Inhibitor]: 0, 782 MG/KG DIET IN VEHICLE 2 MO PRIOR TO CARCINOGEN DOSE AND CONTINUED UNTIL CARCINOGEN ADMINISTRATION (STUDY DURATION, Route [Inhibitor]: ORAL, Species: RAT, Strain/Sex: CD-1/FEMALE, Target Tissue: Type of Lesion: MAMMARY GLAND: ADENOMA, Dose [Carcinogen]: 20 MG IN 1 ML SESAME OIL ONCE, Promoter: NONE USED","17%, 43%), -153%, not calculated"
same,"tumour outcome (control, treated, inhibition, significance)","Carcinogen: METHYLNITROSOUREA, 684-93-5, Dose [Inhibitor]: 0, 782 MG/KG DIET IN VEHICLE 2 MO PRIOR TO CARCINOGEN DOSE AND CONTINUED FOR STUDY DURATION (STUDY DURATION: 8 MO), Route [Inhibitor]: ORAL, Species: RAT, Strain/Sex: CD-1/FEMALE, Target Tissue: Type of Lesion: MAMMARY GLAND: ADENOCARCINOMA, Dose [Carcinogen]: 50 MG/KG BW ONCE, Promoter: NONE USED","57%, 23%, 60%, p<0.05"
same,"tumour outcome (control, treated, inhibition, significance)","Carcinogen: METHYLNITROSOUREA, 684-93-5, Dose [Inhibitor]: 0, 782 MG/KG DIET IN VEHICLE 2 MO PRIOR TO CARCINOGEN DOSE AND CONTINUED FOR STUDY DURATION (STUDY DURATION: 8 MO), Route [Inhibitor]: ORAL, Species: RAT, Strain/Sex: CD-1/FEMALE, Target Tissue: Type of Lesion: MAMMARY GLAND: BENIGN TUMOR, Dose [Carcinogen]: 50 MG/KG BW ONCE, Promoter: NONE USED","10%, 3%, 70%, not calculated"
same,"tumour outcome (control, treated, inhibition, significance)","Carcinogen: METHYLNITROSOUREA, 684-93-5, Dose [Inhibitor]: 0, 782 MG/KG DIET IN VEHICLE 2 MO PRIOR TO CARCINOGEN DOSE AND CONTINUED UNTIL CARCINOGEN ADMINISTRATION (STUDY DURATION, Route [Inhibitor]: ORAL, Species: RAT, Strain/Sex: CD-1/FEMALE, Target Tissue: Type of Lesion: MAMMARY GLAND: ADENOCARCINOMA, Dose [Carcinogen]: 50 MG/KG BW ONCE, Promoter: NONE USED","57%, 66%, -16%, not calculated"
